What follows are compounds tested against T1, Type IV collagenase (MMP-9) (Homo sapiens, UniProt P14780) (assay: Type IV collagenase (MMP-9) inhibition assay, fluorescent substrate kit). Conditions: activated MMP-9 from HT 1080 cells; type IV collagenase activity kit, fluorescent intensity.
T1 construct: made in house; host or cells: endogenous secretion by TPA-stimulated human fibrosarcoma HT 1080 cells; purified from conditioned medium
T1 sequence (P14780 107-707 limits assumed): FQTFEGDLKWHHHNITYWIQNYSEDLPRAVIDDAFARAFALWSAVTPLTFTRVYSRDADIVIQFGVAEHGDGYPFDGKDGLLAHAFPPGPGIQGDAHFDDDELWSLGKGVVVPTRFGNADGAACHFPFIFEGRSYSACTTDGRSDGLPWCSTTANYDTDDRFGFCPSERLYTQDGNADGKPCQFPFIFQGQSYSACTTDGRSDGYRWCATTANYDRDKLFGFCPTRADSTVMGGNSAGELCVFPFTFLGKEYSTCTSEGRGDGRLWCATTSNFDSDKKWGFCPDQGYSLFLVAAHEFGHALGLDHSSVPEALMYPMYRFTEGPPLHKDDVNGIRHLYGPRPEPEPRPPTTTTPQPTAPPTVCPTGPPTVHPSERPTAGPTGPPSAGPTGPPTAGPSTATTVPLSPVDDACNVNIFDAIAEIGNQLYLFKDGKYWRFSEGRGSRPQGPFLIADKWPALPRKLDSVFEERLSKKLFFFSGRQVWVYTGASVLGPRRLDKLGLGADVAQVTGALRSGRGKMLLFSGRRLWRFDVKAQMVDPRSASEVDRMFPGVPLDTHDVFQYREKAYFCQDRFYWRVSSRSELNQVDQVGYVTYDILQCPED
Format: biochemical
Experimental: (1) Isolation and Purification of MMP-9 (92 kDa, Gelatinase B)
Type IV collagenase (MMP-9) was purified according to the methods descrived in the following literature.
Subsequently, activated MMP-9 was obtained by treating the pro-MMP-9 with trypsin.
(2) Assay Methods of Type IV Collagenase Inhibitors
Collagenase assay was performed using the activated MMP-9 described above and the substrate supplied in the type IV collagenase activity kit (YAGAI, inc.), according to the manufacturer's protocol. The following 4 assays are performed per compound (inhibitor). • (A) substrate ([…]), enzyme (MMP-9), inhibitor • (B) substrate ([…]), inhibitor • (C) substrate ([…]), enzyme (MMP-9) • (D) substrate ([…])
According to the manufacturer's protocol, fluorescent intensity was measured and percent inhibition was determined by the following equation. Inhibition (%)={1−(A−B)/(C−D;)}×100
In the case of `O=C(NO)C(Cc1nc2ccccc2[nH]1)NS(=O)(=O)c1ccc(-c2ccccc2)cc1` (racemic) [Example 1b.1-35], the IC50 is reported as 21.6 nM. In the case of `O=C(O)[C@@H](Cc1ccccc1)NS(=O)(=O)c1ccc(-c2nnn(-c3ccccc3)n2)cc1` [Example 1a-5-3], the IC50 is reported as 210 nM. Compound `O=C(NO)[C@@H](Cc1ccccc1)NS(=O)(=O)c1ccc(-c2nnn(-c3ccccc3)n2)cc1` [Example 1b-211] has an IC50 of 5.65 nM.
